Test results taken from the NIST ThermoML archive (doi:10.1016/j.tca.2015.06.017).

Assay: xn = mol fraction of the nth substance listed
Settings: Liquid, Vibrating tube method

CC(C)CCl [1-chloro-2-methylpropane] + CCCCCCC
mass density [kg/m3]
Settings	283.15 K	293.15 K	298.15 K
100 kPa, x2 = 0.0531	874.07	862.97	857.37
100 kPa, x2 = 0.1023	861	850.09	844.58
100 kPa, x2 = 0.2009	836.3	825.74	820.42
100 kPa, x2 = 0.3009	813.26	803.04	797.89
100 kPa, x2 = 0.3981	792.55	782.63	777.63
100 kPa, x2 = 0.4986	772.68	763.05	758.2
100 kPa, x2 = 0.5998	754.11	744.76	740.04
100 kPa, x2 = 0.7038	736.38	727.31	722.73
100 kPa, x2 = 0.7993	721.25	712.4	707.93
100 kPa, x2 = 0.8995	706.4	697.78	693.43
100 kPa, x2 = 0.9507	699.19	690.68	686.38
2000 kPa, x2 = 0.0531	876.04	865	859.45
2000 kPa, x2 = 0.1023	862.99	852.14	846.69
2000 kPa, x2 = 0.2009	838.37	827.88	822.61
2000 kPa, x2 = 0.3009	815.32	805.15	800.07
2000 kPa, x2 = 0.3981	794.55	784.68	779.77
2000 kPa, x2 = 0.4986	774.64	765.08	760.3
2000 kPa, x2 = 0.5998	756.04	746.74	742.16
2000 kPa, x2 = 0.7038	738.29	729.29	724.79
2000 kPa, x2 = 0.7993	723.14	714.35	709.96
2000 kPa, x2 = 0.8995	708.31	699.74	695.5
2000 kPa, x2 = 0.9507	701.15	692.69	688.51
5000 kPa, x2 = 0.0531	879.03	868.28	862.78
5000 kPa, x2 = 0.1023	865.96	855.4	849.99
5000 kPa, x2 = 0.2009	841.29	831.08	825.85
5000 kPa, x2 = 0.3009	818.18	808.31	803.24
5000 kPa, x2 = 0.3981	797.37	787.79	782.87
5000 kPa, x2 = 0.4986	777.41	768.11	763.35
5000 kPa, x2 = 0.5998	758.77	749.74	745.14
5000 kPa, x2 = 0.7038	741	732.21	727.73
5000 kPa, x2 = 0.7993	725.78	717.25	712.83
5000 kPa, x2 = 0.8995	710.91	702.62	698.32
5000 kPa, x2 = 0.9507	703.73	695.55	691.31
7000 kPa, x2 = 0.0531	880.97	870.39	864.94
7000 kPa, x2 = 0.1023	867.88	857.47	852.13
7000 kPa, x2 = 0.2009	843.19	833.12	827.95
7000 kPa, x2 = 0.3009	820.06	810.3	805.31
7000 kPa, x2 = 0.3981	799.24	789.75	784.94
7000 kPa, x2 = 0.4986	779.24	770.05	765.38
7000 kPa, x2 = 0.5998	760.58	751.63	747.13
7000 kPa, x2 = 0.7038	742.77	734.07	729.69
7000 kPa, x2 = 0.7993	727.56	719.06	714.76
7000 kPa, x2 = 0.8995	712.67	704.42	700.23
7000 kPa, x2 = 0.9507	705.48	697.32	693.2
10000 kPa, x2 = 0.0531	883.84	873.43	868.11
10000 kPa, x2 = 0.1023	870.72	860.49	855.26
10000 kPa, x2 = 0.2009	845.97	836.1	831
10000 kPa, x2 = 0.3009	822.78	813.24	808.29
10000 kPa, x2 = 0.3981	801.92	792.65	787.84
10000 kPa, x2 = 0.4986	781.87	772.89	768.21
10000 kPa, x2 = 0.5998	763.16	754.46	749.91
10000 kPa, x2 = 0.7038	745.31	736.87	732.42
10000 kPa, x2 = 0.7993	730.05	721.81	717.45
10000 kPa, x2 = 0.8995	715.13	707.11	702.88
10000 kPa, x2 = 0.9507	707.91	700	695.78
20000 kPa, x2 = 0.0531	892.78	882.96	877.88
20000 kPa, x2 = 0.1023	879.6	869.95	865.08
20000 kPa, x2 = 0.2009	854.73	845.39	840.5
20000 kPa, x2 = 0.3009	831.42	822.38	817.71
20000 kPa, x2 = 0.3981	810.43	801.64	797.11
20000 kPa, x2 = 0.4986	790.3	781.73	777.37
20000 kPa, x2 = 0.5998	771.47	763.14	758.88
20000 kPa, x2 = 0.7038	753.52	745.41	741.28
20000 kPa, x2 = 0.7993	738.16	730.25	726.13
20000 kPa, x2 = 0.8995	723.13	715.39	711.41
20000 kPa, x2 = 0.9507	715.85	708.22	704.25
30000 kPa, x2 = 0.0531	900.97	891.52	886.78
30000 kPa, x2 = 0.1023	887.68	878.34	873.9
30000 kPa, x2 = 0.2009	862.6	853.68	849.18
30000 kPa, x2 = 0.3009	839.17	830.55	826.21
30000 kPa, x2 = 0.3981	818.12	809.73	805.55
30000 kPa, x2 = 0.4986	797.85	789.74	785.57
30000 kPa, x2 = 0.5998	778.93	771.06	766.94
30000 kPa, x2 = 0.7038	760.8	753.18	749.15
30000 kPa, x2 = 0.7993	745.44	737.88	733.94
30000 kPa, x2 = 0.8995	730.29	722.93	719.07
30000 kPa, x2 = 0.9507	722.95	715.7	711.84
40000 kPa, x2 = 0.0531	908.57	899.47	895.02
40000 kPa, x2 = 0.1023	895.22	886.28	882.04
40000 kPa, x2 = 0.2009	870.06	861.43	857.18
40000 kPa, x2 = 0.3009	846.56	838.11	834.09
40000 kPa, x2 = 0.3981	825.29	817.16	813.22
40000 kPa, x2 = 0.4986	804.92	797.04	793.13
40000 kPa, x2 = 0.5998	785.84	778.18	774.36
40000 kPa, x2 = 0.7038	767.67	760.15	756.46
40000 kPa, x2 = 0.7993	752.19	744.84	741.11
40000 kPa, x2 = 0.8995	736.93	729.76	726.12
40000 kPa, x2 = 0.9507	729.53	722.48	718.83
50000 kPa, x2 = 0.0531	915.66	906.83	902.53
50000 kPa, x2 = 0.1023	902.32	893.73	889.53
50000 kPa, x2 = 0.2009	876.98	868.58	864.58
50000 kPa, x2 = 0.3009	853.42	845.22	841.36
50000 kPa, x2 = 0.3981	832.08	824.17	820.34
50000 kPa, x2 = 0.4986	811.56	803.9	800.16
50000 kPa, x2 = 0.5998	792.36	784.93	781.27
50000 kPa, x2 = 0.7038	774.06	766.85	763.24
50000 kPa, x2 = 0.7993	758.41	751.39	747.78
50000 kPa, x2 = 0.8995	743.05	736.21	732.67
50000 kPa, x2 = 0.9507	735.59	728.86	725.32
60000 kPa, x2 = 0.0531	922.27	913.81	909.64
60000 kPa, x2 = 0.1023	908.86	900.5	896.54
60000 kPa, x2 = 0.2009	883.47	875.39	871.48
60000 kPa, x2 = 0.3009	859.78	851.83	848.21
60000 kPa, x2 = 0.3981	838.33	830.75	827.13
60000 kPa, x2 = 0.4986	817.73	810.36	806.82
60000 kPa, x2 = 0.5998	798.43	791.29	787.83
60000 kPa, x2 = 0.7038	780.03	773.13	769.72
60000 kPa, x2 = 0.7993	764.33	757.58	754.16
60000 kPa, x2 = 0.8995	748.87	742.31	738.97
60000 kPa, x2 = 0.9507	741.35	734.9	731.55
65000 kPa, x2 = 0.0531	925.46	917.1	913.06
65000 kPa, x2 = 0.1023	912	903.79	899.93
65000 kPa, x2 = 0.2009	886.55	878.75	874.82
65000 kPa, x2 = 0.3009	862.78	855.14	851.5
65000 kPa, x2 = 0.3981	841.29	833.84	830.36
65000 kPa, x2 = 0.4986	820.65	813.47	810
65000 kPa, x2 = 0.5998	801.22	794.31	790.97
65000 kPa, x2 = 0.7038	782.82	775.99	772.79
65000 kPa, x2 = 0.7993	767.1	760.39	757.19
65000 kPa, x2 = 0.8995	751.59	745.06	741.93
65000 kPa, x2 = 0.9507	744.04	737.63	734.52
